How the values were obtained:
[1] = target: T1, ZES2b translation products (Bionectria ochroleuca, UniProt Q8NKB0, A65V/H263Y/S41R/T3I); format: biochemical, Gliocladium roseum; conditions: 37° C. for 16 hours
T1 construct: made in house; host or cells: cell-free coupled transcription/translation (Roche RTS500; T7 polymerase, E. coli ribosomes) from plasmids pFMB35-34 (cDNA) and pFMB35-13 (genomic DNA)
T1 sequence (Q8NKB0 1-264 T3I/S41R/A65V/H263Y): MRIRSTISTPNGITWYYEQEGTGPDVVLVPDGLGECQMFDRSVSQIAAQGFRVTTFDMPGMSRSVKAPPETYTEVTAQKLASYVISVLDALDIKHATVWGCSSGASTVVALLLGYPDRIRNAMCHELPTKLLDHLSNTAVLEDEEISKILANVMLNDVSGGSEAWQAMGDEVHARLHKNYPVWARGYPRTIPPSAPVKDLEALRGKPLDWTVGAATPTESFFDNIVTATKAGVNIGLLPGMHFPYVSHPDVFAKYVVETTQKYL

Armenian hamster = conditions: in vivo; cited from earlier work
humans = conditions: in vivo; cited from earlier work
mice = conditions: mouse, in vivo; cited from earlier work
rats = conditions: rat, in vivo; cited from earlier work
[2] = tested on: human breast cancer cells; conditions: cited from earlier work
[3] = tested on: zearalenone esterase synthesis in G. roseum; conditions: cited from earlier work
uterine tissues = conditions: mouse, in vivo; cited from earlier work
[4] = tested on: ZES1, ZES2, and ZES2b transcripts; experiment: Differential transcript profiling (Curagen Profiling) of G. roseum cultures; format: cell-based, Gliocladium roseum; conditions: G. roseum cultured with 10 μg/ml for 12 hours at 22° C.
Protocol: The ZES1, ZES2, and ZES2b sequences of the invention were identified by assaying for differential expression patterns in the presence of α-zearalenol and β-zearalenol, which allowed for identification of the nucleotide sequences of the invention. Specifically, G. roseum was cultured in the presence of either 10 μg/ml α-zearalenol or 10 μg/ml β-zearalenol for 12 hours at 22° C. Following culturing, Curagen Profiling technology was used to identify transcripts present in α-zearalenol-induced cultures but absent in β-zearalenol-induced cultures.

SMILES: C[C@H]1CCCC(=O)CCC/C=C/c2cc(O)cc(O)c2C(=O)O1 [zearalenone]
- degradation of substrate after incubation with the translation product of pFMB35-13 [1]: completely degraded
- degradation of substrate after incubation with the translation product of pFMB35-34 [1]: completely degraded
- induction of hepatic carcinomas (Armenian hamster): induce hepatic carcinomas
- estrogenic effects in humans (humans): exhibits estrogenic effects
- hyperestrogenic syndrome in humans (humans): causes hyperestrogenic syndrome
- carcinogenicity (mice): carcinogenic
- teratogenicity (rats): teratogenic
- entry of human breast cancer cells into the cell cycle [2]: stimulates human breast cancer cells to enter the cell cycle
- induction of synthesis of zearalenone esterase in G. roseum [3]: occurs only when zearalenone or its derivative α-zearalenol is present in the culture medium
- modulation of uterine tissues (uterine tissues): induce modulation of uterine tissues

SMILES: C[C@H]1CCC[C@H](O)CCC/C=C/c2cc(O)cc(O)c2C(=O)O1 [α-zearalenol]
- degradation of substrate after incubation with the translation product of pFMB35-13 [1]: completely degraded
- degradation of substrate after incubation with the translation product of pFMB35-34 [1]: completely degraded
- expression of ZES1, ZES2, and ZES2b transcripts in induced cultures [4]: upregulated
- induction of synthesis of zearalenone esterase in G. roseum [3]: occurs only when zearalenone or its derivative α-zearalenol is present in the culture medium

SMILES: C[C@H]1CCC[C@@H](O)CCC/C=C/c2cc(O)cc(O)c2C(=O)O1 [β-zearalenol]
- degradation of substrate after incubation with the translation product of pFMB35-13 [1]: completely degraded
- degradation of substrate after incubation with the translation product of pFMB35-34 [1]: completely degraded
- induction of synthesis of zearalenone esterase in G. roseum [3]: does not induce synthesis of zearalenone esterase
